Results reported in patent US7795239B2, “Saccharide compositions and method of use” (Mueller Medical International LLC, priority 1992, dated 2010).

Set-up: AUC for Cimetidine / AUC for Ranitidine: unit not given beside the values
Details: in vivo

Row | Structure (SMILES) | AUC for Cimetidine | dissolved drug not absorbed from the GI tract into the blood stream | AUC for Ranitidine
1 | CN/C(=N/CCSCc1nc[nH]c1C)NC#N [cimetidine] | 54.3 | 15-20% | –
2 | NC(N)=Nc1nc(CSCCC(N)=NS(N)(=O)=O)cs1 [famotidine] | – | 15-20% | –
3 | CNC(=C[N+](=O)[O-])NCCSCc1ccc(CN(C)C)o1 [ranitidine] | – | 15-20% | 55.2
